Measured values reported in patent publication US20120295838A1, “Selective poly-substituted glycine antibiotics and related compositions” (priority 2008, published 2012).
Values after ≈ are worked out from the molar mass of the structure shown. Where two headings read alike, the source gives them in different places. Numbered stars: 1 amine (or outer) side, 2 acyl side, 3 side chain; on linkers, the order of the positions; unused ones are H or OH. Square brackets hold non-standard residues; d marks the D form. Ends that are not written are not given here. Peptide text beside a SMILES is read from it. Gly(N-CH2CH2-imidazol-4-yl) = O=C(O)CNCCc1c[nH]cn1; X1 = CC(C)[C@H](C)N(CC(=O)[*:2])[*:1]; Nspe = C[C@H](NCC(=O)O)c1ccccc1; Nphe = O=C(O)CNCc1ccccc1; Nlys = NCCCCNCC(=O)O

Assays:
Enterococcus faecalis 99 = format: cell-based; details: for Selectivity ratio (SR): Table 7B, 10% hemolytic dose divided by MIC
Method: (§1) Antibacterial assays. MICs were determined according to CLSI M7-A6 protocols in a 96-well microtiter plate. In test wells, 50 uL bacterial inoculum (5×10^5 CFU/ml) in Mueller-Hinton broth (MHB) was added to 50 μL peptoid solution in MHB (prepared by 1:2 serial dilutions). Positive controls contained 50 μL inoculum and 50 μL MHB without peptoid. […] MIC values reported were reproducible between three independent experimental replicates, each consisting of two parallel trials. Broad-spectrum antimicrobial susceptibility testing was performed against BSL2 pathogens by Nova Biologicals, Inc. (Conroe, Tex.).
(§2) Broad-spectrum antibacterial assays. MICs of compounds were determined by microdilution procedure in Mueller-Hinton broth (MHB) in accordance with CLSI M7-A6 protocols in a manner similar to that described for the screen antibacterial assays. Inoculated microtiter plates were incubated at 35° C. for 24 hours prior to the result being recorded. Four ATCC strains that were used as standards are recommended by CLSI: Pseudomonas aeruginosa ATCC 27853, Escherichia coli ATCC 25922, Staphylococcus aureus ATCC 29213 and Enterococcus faecalis ATCC 29212. Other strains from the ATCC collection include Proteus vulgaris ATCC 49132, Proteus mirabilis ATCC 35659, Klebsiella pneumoniae ATCC 33495, Enterobacter aerogenes ATCC 35029 and Serratia marcescens ATCC 13880. S. aureus NRS100 (COL) is a well characterized methicillian-resistant S. aureus (MRSA) strain. The strains S. aureus VAN1 and S. aureus VAN2, vancomycin-resistant MRSA strains that were isolated in Michigan and Pennsylvania, were the first vancomycin-resistant strains clinically isolated. S. aureus NRS 119 and S. aureus NRS 120 are linezolid-resistant isolates from the Network on Antimicrobial Resistance in S. aureus (NARSA) collection. E. faecalis 99 and E. faecium 106 are vancomycin-resistant enterococcal strains.

[1] = system: Escherichia coli ATCC 25922; format: cell-based; details: for Selectivity ratio (SR): Table 7B, 10% hemolytic dose divided by MIC
Method: as §1, §2

[2] = system: Klebsiella pneumoniae ATCC 33495; format: cell-based; details: for Selectivity ratio (SR): Table 7B, 10% hemolytic dose divided by MIC
Method: as §1, §2

[3] = system: Pseudomonas aeruginosa ATCC 27853; format: cell-based; details: for Selectivity ratio (SR): Table 7B, 10% hemolytic dose divided by MIC
Method: as §1, §2

[4] = system: Proteus mirabilis ATCC 35659; assay: Broad-spectrum antibacterial MIC; format: cell-based; details: Table 7B; 10% hemolytic dose divided by MIC; P. mirabilis ATCC 35659
Method: as §1, §2

[5] = system: Serratia marcescens ATCC 13880; assay: Broad-spectrum antibacterial MIC; format: cell-based; details: Table 7B; 10% hemolytic dose divided by MIC; S. marcescens ATCC 13880
Method: as §1, §2

[6] = RP-HPLC solvent composition at elution as measure of molecular hydrophobicity; format: physicochemical; details: for HPLC elution solvent: Table 1, percent acetonitrile in water, 0.1% (v/v) TFA at HPLC elution; for % ACN at RP-HPLC elution: Table 8, gradient 5 to 95% ACN over 45 min, 0.2 ml/min, average of three replicates
Text: An initial set of 15 ampetoid analogs was synthesized to determine whether peptoids are affected by structural and sequence modifications in a manner consistent with AMP activities. The designs for ampetoids in this library were derived from two antibacterial and selective amphipathic dodecamers, 1 and 2. Peptoid 1 [H-(Nlys-Nspe-Nspe)4-NH2] is composed of 2/3 Nspe, the peptoid analog of phenylalanine, and 1/3 Mys, the peptoid analog of lysine (see FIG. 1 for the structures of representative peptoid monomers and corresponding N-substituents). Peptoid 2 [H-(Mys-Nssb-Nspe)4-NH2] contains 1/3 isoleucine-like Nssb monomers in place of Nspe. The variant sequences were designed to effect changes in chirality, length, hydrophobicity, charge, and amphipathicity. All of these compounds were tested for antibacterial activity against representative BSL1 Gram-negative (E. coli JM109) and Gram-positive (B. subtilis BR151) bacterial strains. As an initial measure of selectivity, the lytic activity of the peptoids was determined against human erythrocytes. Table 1 summarizes the sequences synthesized, the solvent composition at RP-HPLC elution as a relative measure of molecular hydrophobicity, and antibacterial and hemolytic activities.
Following synthesis, peptoid oligomers can be cleaved from the resin, simultaneously removing the tert-butoxycarbonyl (Boc) protecting group from Mys residues, by treatment with 10 ml 2,2,2-trifluoroacetic acid (TFA)/triisopropylsilane/H2O (95:2.5:2.5 by volume) for 30 min. The cleavage mixture is then diluted with 25 ml 50% aqueous acetonitrile, frozen, and lyophilized. Dilution and lyophilization is repeated twice more in order to remove excess TFA. Subsequent to cleavage, peptoids are each purified to >97% homogeneity by preparative scale reversed-phase HPLC using a Waters Prep LC 4000 system, with Waters 2487 dual-wavelength UV detection, and gradient elution (solvent A, 0.1 vol % trifluoroacetic acid (TFA) in water; solvent B, 0.1 vol % TFA in acetonitrile) through a Vydac (Hysperia, Calif.) 214TP101550 C4 peptide/protein column (10-15 μm, 300 Å, 5×25 cm). Following prep HPLC, peptoid purities and crude yields were determined from analytical scale HPLC, performed with a Waters 2695 Separations Module with a Waters 2487 dual-wavelength UV detector and gradient elution (solvent A, 0.1 vol % TFA in water; solvent B, 0.1 vol % TFA in acetonitrile) through a Vydac C4 214TP53 peptide/protein column (5 μm, 300 Å, 3.2×250 mm). The precise gradient employed for HPLC depended on the identity and hydrophobicity of the oligomer in question. All analytical HPLC was performed at 0.5 ml/min flow and 58° C. Preparative HPLC was performed at 50 ml/min flow and room temperature.
Compound synthesis and purification. Peptoids were synthesized using an ABI 433A peptide synthesizer (Applied Biosystems, Inc.) on Rink amide MBHA resin (Novabiochem, Inc.) using the submonomer approach^3. Briefly, bromoacetic acid, activated by diisopropylcarbodiimide was used to form a bromocetylated intermediate on the terminal amide group. Bromide was then substituted with the desired primary amine through SN2 displacement to build the peptoid chain. The amines used in peptoid synthesis include benzylamine, octadecylamine, (s)-(+)-2-amino-3-methylbutane, (s)-α-methylbenzylamine, (r)-(α-methylbenzylamine (all purchased from Sigma-Aldrich), and N-tert-butoxycarbonyl-1,4 diaminobutane (Mys) that was made using a published procedure^83. Resin-bound peptoids were then exposed to a mixture of trifluoroacetic acid (TFA): triisopropylsilane:water (95:2.5:2.5, v:v:v) for ten minutes to cleave peptoids from the solid phase. Peptoids were purified by reversed-phase HPLC (RP-HPLC) (Waters Corporation) using a C18 column and a linear acetonitrile/water gradient. A final purity greater than 97% as measured by analytical RP-HPLC (Waters Corporation) was achieved, and the identity of each molecule was checked using electrospray ionization mass spectrometry. […]

In the case of “GIGKFLKKAKKFGKAFVKILKK-NH2 [pexiganan, reference compound]”, the MIC (Enterococcus faecalis 99; Table 7A, E. faecalis 99) is reported as 128 µg/mL, the “Selectivity ratio (SR)” value (Enterococcus faecalis 99; E. faecalis 99) is reported as 1.4 and the MIC ([1]; Table 7A, E. coli ATCC 25922) is reported as 8 µg/mL. The “Selectivity ratio (SR)” value ([1]; E. coli ATCC 25922) was 23, the MIC ([2]; Table 7A, K. pneumoniae ATCC 33495) was 8 µg/mL and the “Selectivity ratio (SR)” value ([2]; K. pneumoniae ATCC 33495) was 23. For the same compound, the MIC ([3]; Table 7A, P. aeruginosa ATCC 27853) was 4 µg/mL, the “Selectivity ratio (SR)” value ([3]; P. aeruginosa ATCC 27853) was 46 and the “Selectivity ratio (SR)” value [4] was <1.4. The “Selectivity ratio (SR)” value [5] was <1.4, the HPLC elution solvent [6] was 38% and the “HPLC ELUTION” value ([6]; Table 2, percent acetonitrile in H2O, C18 column, 0.1% TFA, pH 1) was 38%. For the same compound, the “HPLC elution (% ACN)” value ([6]; Table 5, average of three injections, linear 5%-95% acetonitrile/water (0.1% TFA) over 45 minutes, C18 column) was 50.2 % ACN and the “% ACN at RP-HPLC elution” value ([6]; C18 column) was 50.2 % ACN.

For `C[C@@H](c1ccccc1)N(CC(=O)N(CCc1cnc[nH]1)CC(=O)N(CCCCN)CC(=O)N(CC(=O)N(CC(=O)N(CCCCN)CC(=O)N(CC(=O)N(CCc1cnc[nH]1)CC(N)=O)[C@@H](C)c1ccccc1)[C@@H](C)c1ccccc1)[C@@H](C)c1ccccc1)C(=O)CN(CCCCN)C(=O)CN(C(=O)CN(C(=O)CNCCCCN)[C@@H](C)c1ccccc1)[C@@H](C)c1ccccc1` [1-Nhis6,12, H-(Nlys-Nspe-Nspe-Nlys-Nspe-Nhis)2-NH2] (H-[Nlys][Nspe][Nspe][Nlys][Nspe][Gly(N-CH2CH2-imidazol-4-yl)][Nlys][Nspe][Nspe][Nlys][Nspe][Gly(N-CH2CH2-imidazol-4-yl)]-NH2), the HPLC elution solvent [6] was 37% and the “% ACN at RP-HPLC elution” value ([6]; C18 column) was 51.4 % ACN.

In the case of `NCCCCNCC(=O)N(CC(=O)N(CC(=O)N(CCCCN)CC(=O)N(CC(=O)N(CC(=O)N(CCCCN)CC(=O)N(CC(=O)N(CC(=O)N(CCCCN)CC(=O)N(CC(=O)N(CC(N)=O)Cc1ccccc1)Cc1ccccc1)Cc1ccccc1)Cc1ccccc1)Cc1ccccc1)Cc1ccccc1)Cc1ccccc1)Cc1ccccc1` [1achiral, H-(Nlys-Npm-Npm)4-NH2] (H-[Nlys][Nphe][Nphe][Nlys][Nphe][Nphe][Nlys][Nphe][Nphe][Nlys][Nphe][Nphe]-NH2), the “Selectivity ratio (SR)” value (Enterococcus faecalis 99; E. faecalis 99) is reported as 4.9, the “Selectivity ratio (SR)” value ([1]; E. coli ATCC 25922) is reported as 19 and the “Selectivity ratio (SR)” value ([2]; K. pneumoniae ATCC 33495) is reported as 39. The “Selectivity ratio (SR)” value ([3]; P. aeruginosa ATCC 27853) was 19, the “Selectivity ratio (SR)” value [4] was <2.4 and the “Selectivity ratio (SR)” value [5] was 2.4. The “% ACN at RP-HPLC elution” value ([6]; C18 column) was 60.4 % ACN.

With `CC(C)[C@H](C)N(CC(=O)N(CC(=O)N(CCCCN)CC(=O)N(CC(=O)N(CC(=O)N(CCCCN)CC(=O)N(CC(=O)N(CC(=O)N(CCCCN)CC(=O)N(CC(=O)N(CC(N)=O)[C@@H](C)c1ccccc1)[C@@H](C)C(C)C)[C@@H](C)c1ccccc1)[C@@H](C)C(C)C)[C@@H](C)c1ccccc1)[C@@H](C)C(C)C)[C@@H](C)c1ccccc1)C(=O)CNCCCCN` [1-Nsdp2,5,8,11, H-(Nlys-Nsdp-Nspe)4-NH2] (H-[Nlys][X1][Nspe][Nlys][X1][Nspe][Nlys][X1][Nspe][Nlys][X1][Nspe]-NH2) the MIC (Enterococcus faecalis 99; 99) was 64 µg/mL (≈ 38 µM), the “Selectivity ratio (SR)” value (Enterococcus faecalis 99; E. faecalis 99) was 2.9 and the MIC ([1]; ATCC 25922) was 8 µg/mL (≈ 4.75 µM). For the same compound, the “Selectivity ratio (SR)” value ([1]; E. coli ATCC 25922) was 23, the MIC ([2]; ATCC 33495) was 8 µg/mL (≈ 4.75 µM) and the “Selectivity ratio (SR)” value ([2]; K. pneumoniae ATCC 33495) was 23. The MIC ([3]; ATCC 27853) was 16 µg/mL (≈ 9.51 µM), the “Selectivity ratio (SR)” value ([3]; P. aeruginosa ATCC 27853) was 12 and the “Selectivity ratio (SR)” value [4] was <1.5. The “Selectivity ratio (SR)” value [5] was <1.5.
